The record followed here is patent publication US10077261B2, “Imidazolin-5-one derivative useful as FASN inhibitors for the treatment of cancer” (Janssen Pharmaceutica NV, priority 2012, dated 2018).

A value given as a limit tells only on which side of the number the result lay.

The target of experiment [1] is T1, hFASN enzyme (full length) (Homo sapiens, UniProt P49327).
T1 construct: 10 μL hFASN enzyme (full length, 300 ng, purified in house); made in house
Put plainly: Fatty Acid Synthase (FASN) inhibition scintillation proximity assay. Particulars: for inhibition at 10 µM: read-out: Human FASN % inhibition @ 10 μM, 10 μM test compound; for IC50: read-out: Human FASN pIC50 (converted). It counts as biochemical. In short, it runs like this: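 Proximity read-out: hydrophobic ^3H-palmitate formed from ^3H-acetyl-CoA and malonyl-CoA binds streptavidin imaging beads, imaged at 610±20 nm at least 24 h after stopping. Enzyme was in-house purified full-length hFASN, 300 ng, in pH 7.5 phosphate/DTT buffer; compound series 30 μM down to 0.01 μM, normalized to controls, 4-parameter fit.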
(In general: In a scintillation proximity assay essentially only radioactivity close to the scintillant gives light.)

Experiment [2] deals with A2780 ovarian cells. Briefly: A2780 ovarian cell proliferation assay in lipid reduced medium, with palmitate (MTT). It counts as cell-based. Particulars: Homo sapiens, A2780, 96 h; read-out: pIC50 A2780 Ovarian Cell, With Palmitate (converted). In short, it runs like this: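 In this palmitate-supplemented format, compound dilutions (30 μM down to 0.01 μM) are added to cells in lipid-reduced serum with 25 μM palmitate, 0.2% fatty-acid-free BSA and 0.25% ethanol. After four days (96 h) MTT absorbance at 544 nm is recorded and fitted by minimum sum of squares.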

Experiment [3] concerns A2780 ovarian cells. Put plainly: A2780 ovarian cell proliferation assay in lipid reduced medium, without palmitate (MTT). It counts as cell-based. Particulars: Homo sapiens, A2780, 96 h; read-out: pIC50 A2780 Ovarian Cell, Without Palmitate (converted).
Experiment [4] concerns LNCaP-Vancouver prostate cells. Briefly: In vitro LNCaP Vancouver prostate cell proliferation assay in lipid reduced medium. It counts as cell-based. The note with it: read-out: pIC50 LNCaP_Vancouver prostate cell (converted).
The test system of experiment [5] is PC-3M-Luc-C6 prostate cells. Put plainly: In vitro PC-3M-Luc-C6 prostate cell proliferation assay in lipid reduced medium. It counts as cell-based. Particulars: 96 h, read-out: pIC50 PC-3M-Luc-C6 prostate cell (converted).
The target of experiment [6] is Fatty Acid Synthase Keto-reductase Domain (FASN KR) (Homo sapiens, UniProt P49327). Briefly: Fatty Acid Synthase keto-reductase domain (FASN KR) inhibition, NADPH oxidation at 340 nm.
Chain of Fatty Acid Synthase Keto-reductase Domain (FASN KR) (P49327 whole entry, the tested form may be a part): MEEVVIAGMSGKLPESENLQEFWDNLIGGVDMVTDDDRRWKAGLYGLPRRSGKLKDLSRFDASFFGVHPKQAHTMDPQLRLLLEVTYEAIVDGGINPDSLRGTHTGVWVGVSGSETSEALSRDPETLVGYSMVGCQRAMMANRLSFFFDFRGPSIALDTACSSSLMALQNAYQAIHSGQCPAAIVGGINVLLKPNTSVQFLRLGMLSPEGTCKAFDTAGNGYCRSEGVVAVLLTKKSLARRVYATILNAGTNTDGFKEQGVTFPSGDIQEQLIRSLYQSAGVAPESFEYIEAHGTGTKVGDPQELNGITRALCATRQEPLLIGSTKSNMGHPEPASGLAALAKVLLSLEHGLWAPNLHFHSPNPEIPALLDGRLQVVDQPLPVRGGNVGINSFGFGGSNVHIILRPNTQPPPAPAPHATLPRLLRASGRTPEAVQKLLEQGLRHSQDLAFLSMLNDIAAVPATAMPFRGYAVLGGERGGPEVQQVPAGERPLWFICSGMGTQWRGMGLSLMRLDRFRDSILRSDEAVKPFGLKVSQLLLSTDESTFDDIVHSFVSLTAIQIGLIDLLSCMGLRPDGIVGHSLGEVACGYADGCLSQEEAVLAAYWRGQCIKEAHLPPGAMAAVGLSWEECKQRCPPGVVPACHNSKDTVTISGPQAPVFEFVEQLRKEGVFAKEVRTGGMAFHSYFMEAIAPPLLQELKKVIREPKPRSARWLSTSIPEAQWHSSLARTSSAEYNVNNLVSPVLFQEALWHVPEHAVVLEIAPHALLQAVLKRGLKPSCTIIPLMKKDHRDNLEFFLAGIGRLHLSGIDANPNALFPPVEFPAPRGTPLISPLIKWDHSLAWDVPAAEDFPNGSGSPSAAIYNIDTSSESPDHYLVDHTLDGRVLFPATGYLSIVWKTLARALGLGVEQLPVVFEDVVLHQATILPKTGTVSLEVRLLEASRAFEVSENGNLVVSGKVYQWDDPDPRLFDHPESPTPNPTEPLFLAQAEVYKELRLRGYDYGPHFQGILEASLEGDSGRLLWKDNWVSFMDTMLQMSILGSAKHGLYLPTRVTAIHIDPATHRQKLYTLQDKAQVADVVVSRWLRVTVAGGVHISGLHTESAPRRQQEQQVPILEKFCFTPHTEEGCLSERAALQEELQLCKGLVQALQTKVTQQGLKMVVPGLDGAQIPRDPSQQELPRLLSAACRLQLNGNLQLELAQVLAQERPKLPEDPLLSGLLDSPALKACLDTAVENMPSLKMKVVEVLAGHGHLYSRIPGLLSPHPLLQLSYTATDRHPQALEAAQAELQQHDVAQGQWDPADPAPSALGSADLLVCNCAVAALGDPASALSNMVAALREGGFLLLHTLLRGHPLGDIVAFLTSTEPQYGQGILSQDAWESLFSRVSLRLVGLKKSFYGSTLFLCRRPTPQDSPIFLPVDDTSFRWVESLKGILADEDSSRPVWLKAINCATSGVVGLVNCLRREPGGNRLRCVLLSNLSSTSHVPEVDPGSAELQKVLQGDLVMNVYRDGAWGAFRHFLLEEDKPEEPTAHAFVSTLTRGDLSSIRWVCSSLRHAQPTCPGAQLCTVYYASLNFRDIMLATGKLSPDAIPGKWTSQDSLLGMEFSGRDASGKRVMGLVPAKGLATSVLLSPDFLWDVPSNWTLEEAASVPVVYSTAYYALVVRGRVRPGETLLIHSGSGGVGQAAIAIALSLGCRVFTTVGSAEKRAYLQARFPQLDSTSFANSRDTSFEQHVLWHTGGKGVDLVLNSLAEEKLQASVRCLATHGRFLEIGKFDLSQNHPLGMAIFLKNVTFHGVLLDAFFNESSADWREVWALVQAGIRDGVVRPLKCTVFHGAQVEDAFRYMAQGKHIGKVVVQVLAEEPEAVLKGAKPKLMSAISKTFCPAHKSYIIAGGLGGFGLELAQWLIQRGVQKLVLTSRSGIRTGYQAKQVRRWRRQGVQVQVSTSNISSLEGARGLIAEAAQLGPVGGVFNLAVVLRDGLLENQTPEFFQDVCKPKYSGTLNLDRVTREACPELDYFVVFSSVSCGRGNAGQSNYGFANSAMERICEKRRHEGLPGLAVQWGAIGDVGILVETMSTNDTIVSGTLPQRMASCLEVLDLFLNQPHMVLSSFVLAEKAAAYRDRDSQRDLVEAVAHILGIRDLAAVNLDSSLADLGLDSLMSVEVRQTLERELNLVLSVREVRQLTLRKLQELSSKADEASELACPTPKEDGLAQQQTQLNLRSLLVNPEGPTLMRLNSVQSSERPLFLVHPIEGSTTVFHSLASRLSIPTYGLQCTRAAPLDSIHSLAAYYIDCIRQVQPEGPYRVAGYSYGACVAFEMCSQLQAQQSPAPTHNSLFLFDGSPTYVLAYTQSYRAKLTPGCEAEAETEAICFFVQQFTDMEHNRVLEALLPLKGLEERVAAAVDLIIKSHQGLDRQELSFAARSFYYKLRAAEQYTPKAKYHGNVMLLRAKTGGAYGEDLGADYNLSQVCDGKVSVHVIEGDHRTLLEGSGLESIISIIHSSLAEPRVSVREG
Protocol: After 20 minutes incubation at room temperature the plate was measured again (T2).
The decrease in absorbance was calculated as (Absorbance before incubation T1)−(Absorbance following incubation T2).
A plot of Controlmin versus test compound concentration was fitted to a 4-parameter logistic curve using a non-linear least squares regression method.

T1 sequence (P49327 whole entry): as the sequence (P49327 whole entry, the tested form may be a part) above

Broadly, the inhibition is the change of the read-out against control, counted positive when it falls. As for `N#Cc1ccc2cc(-c3ccc(C4=NC5(CC5)C(=O)N4CC4CN(C(=O)C5CCO5)C4)c(F)c3)ccc2c1` (stereo not drawn) [compound 226, 6-(3-fluoro-4-(6-((1-(oxetane-2-carbonyl)azetidin-3-yl)methyl)-7-oxo-4,6-diazaspiro[2..4]hept-4-en-5-yl)phenyl)-2-naphthonitrile], the inhibition at 10 µM in experiment [1] worked out at 98%. Further, the IC50 in experiment [1] was 23.4 nM; in the experiment on A2780 ovarian cells [2], greater than 10000 nM; with A2780 ovarian cells [3] it was 2.34 nM; in experiment [4], 21.9 nM; in experiment [5], roughly 5.89 nM; in experiment [6] it was 24 nM.

On to `Cn1cc2ccc(-c3ccc(C4=NC5(CC5)C(=O)N4CC4CN(C(=O)C5CC5)C4)c(F)c3)cc2n1` [compound 227, 6-((1-(cyclopropanecarbonyl)azetidin-3-yl)methyl)-5-(2-fluoro-4-(2-methyl-2H-indazol-6-yl)phenyl)-4,6-diazaspiro[2.4]hept-4-en-7-one], for which, in experiment [1], the inhibition at 10 µM was 99%. Further, the IC50 is 42.7 nM in experiment [1]; greater than 10000 nM in the experiment with A2780 ovarian cells [2]; 13.2 nM with A2780 ovarian cells [3]; 355 nM in experiment [4]; 55 nM in experiment [5]; 151 nM in experiment [6].

Turning to `Cc1cc(C2=NC3(CC3)C(=O)N2C[C@@H]2CCN(C(=O)C3CC3)C2)ccc1-c1ccc2sc(C)c(C)c2c1` [compound 231, (R)-6-((1-(cyclopropanecarbonyl)pyrrolidin-3-yl)methyl)-5-(4-(2,3-dimethylbenzo[b]thiophen-5-yl)-3-methylphenyl)-4,6-diazaspiro[2.4]hept-4-em-7-one], the inhibition at 10 µM in experiment [1] is 108%. For the same molecule, the IC50 in experiment [1] is 100 nM; in the experiment on A2780 ovarian cells [2], greater than 6170 nM; in the experiment with A2780 ovarian cells [3], 2510 nM; in experiment [4] it was 2190 nM; in experiment [5] it was roughly 1620 nM; in experiment [6], 282 nM.

Consider `O=C(C1CC1)N1CC[C@@H](CN2C(=O)C3(CC3)N=C2c2ccc(-c3ccc4sccc4c3)c(F)c2)C1` [compound 233, (R)-5-(4-(benzo[b]thiophen-5-yl)-3-fluorophenyl)-6-((1-(cyclopropanecarbonyl)pyrrolidin-3-yl)methyl)-4,6-diazaspiro[2.4]hept-4-en-7-one], for which, in experiment [1], the inhibition at 10 µM was found to be 110%. In addition, the IC50 in experiment [1] is 50.1 nM; with A2780 ovarian cells [2], greater than 10000 nM; in the experiment on A2780 ovarian cells [3], 912 nM; in experiment [4] it was 1700 nM; in experiment [5], 575 nM; in experiment [6], 93.3 nM.

Consider `O=C(C1CC1)N1CC[C@@H](CN2C(=O)C3(CC3)N=C2c2ccc(-c3ccc4[nH]ccc4c3)c(F)c2)C1` [compound 234, (R)-6-((1-(cyclopropanecarbonyl)pyrrolidin-3-yl)methyl)-5-(3-fluoro-4-(1H-indol-5-yl)phenyl)-4,6-diazaspiro[2.4]hept-4-en-7-one], for which, in experiment [1], the inhibition at 10 µM was determined as 108%. The IC50 in experiment [1] is 20.9 nM; in the experiment on A2780 ovarian cells [2] it was greater than 10000 nM; in the experiment on A2780 ovarian cells [3] it was roughly 28.8 nM; in experiment [4], 245 nM; in experiment [5], 23.4 nM; in experiment [6] it was 51.3 nM.

For `O=C(C1CC1)N1CC[C@@H](CN2C(=O)C3(CC3)N=C2c2ccc(-c3ccc4cc[nH]c4c3)c(F)c2)C1` [compound 236, (R)-6-((1-(cyclopropanecarbonyl)pyrrolidin-3-yl)methyl)-5-(3-fluoro-4-(1H-indol-6-yl)phenyl)-4,6-diazaspiro[2.4]hept-4-en-7-one], the inhibition at 10 µM in experiment [1] came out at 98%. Moreover, the IC50 was 34.7 nM in experiment [1]; greater than 10000 nM in the experiment with A2780 ovarian cells [2]; roughly 89.1 nM with A2780 ovarian cells [3]; 646 nM in experiment [4]; 51.3 nM in experiment [5]; 95.5 nM in experiment [6].
